The record followed here is US20100120679A1, “Targeting NBS1-ATM Interaction To Sensitize Cancer Cells To Radiotherapy And Chemotherapy” (SOUTHERN RESEARCH INSTITUTE, priority 2006, published 2010).

In assay [1] the target is T1, NBS1 binding to MRE11 (Homo sapiens, UniProt P49959).
T1 construct: endogenous in cells; host or cells: HeLa
T1 sequence (P49959 1-708): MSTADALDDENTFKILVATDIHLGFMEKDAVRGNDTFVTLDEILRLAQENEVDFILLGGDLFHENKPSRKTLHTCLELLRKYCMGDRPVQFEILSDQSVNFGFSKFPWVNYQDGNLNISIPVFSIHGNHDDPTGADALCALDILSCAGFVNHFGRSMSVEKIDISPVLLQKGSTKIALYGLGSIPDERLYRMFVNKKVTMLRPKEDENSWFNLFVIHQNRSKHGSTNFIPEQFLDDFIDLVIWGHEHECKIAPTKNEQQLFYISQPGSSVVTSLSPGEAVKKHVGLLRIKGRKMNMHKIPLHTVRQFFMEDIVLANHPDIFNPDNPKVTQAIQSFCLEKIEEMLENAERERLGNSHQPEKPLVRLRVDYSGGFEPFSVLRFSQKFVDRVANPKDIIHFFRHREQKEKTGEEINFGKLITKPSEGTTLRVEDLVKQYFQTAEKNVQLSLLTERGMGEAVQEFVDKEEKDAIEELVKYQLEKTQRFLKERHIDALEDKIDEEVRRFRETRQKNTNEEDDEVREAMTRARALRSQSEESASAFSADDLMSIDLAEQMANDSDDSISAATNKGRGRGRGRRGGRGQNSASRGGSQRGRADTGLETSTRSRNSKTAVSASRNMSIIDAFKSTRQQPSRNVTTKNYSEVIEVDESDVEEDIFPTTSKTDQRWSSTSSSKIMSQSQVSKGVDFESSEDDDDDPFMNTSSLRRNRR
Kind of assay: Co-immunoprecipitation of MRE11 with NBS1 in peptide-treated cells. It counts as cell-based. Conditions: HeLa cells, four hours after peptide treatment. As for the experimental part:
HeLa cells treated with the NIP peptides were irradiated (0 or 6Gy). Immunoprecipitation was performed with a rabbit NBS1 antibody, and Western blotting was performed with monoclonal antibodies against ATM, NBS1 or MRE11.
Immunoprecipitation and Western blotting: For co-immunoprecipitation of ATM, NBS1 and MRE11, cells were lysed 1 hour in ice-cold lysis buffer, which consisted of 10 mM Tris-HCl (pH 7.5), 100 mM NaCl, 5 mM EDTA, 0.5% NP-40, 5 mM Na3VO4, 1 mM NaF, and 1 mM PMSF. After centrifugation, supernatants were incubated with indicated antibodies. After extensive washing with the lysis buffer, immunoprecipitates were analyzed by immunoblot using specific antibodies. For western blotting analysis, samples (cell lysates or immunoprecipitates) were separated on 4-12% SDS-poly-acrylamide gels, transferred to nitrocellulose membranes, and probed with various antibodies.
wtNIP Abrogated the NBS1-ATM Interaction: To investigate whether R9-conjugated NIP peptides could inhibit NBS1-ATM interactions, coimmunoprecipitation experiments were performed in cells treated with the NIP peptides. Four hours after peptide treatment, HeLa cells were harvested and subjected to immunoprecipitation using an anti-NBS1 antibody. The immunoprecipitates were then blotted with anti-ATM, NBS1, and MRE11 antibodies.

Assay [2] has as its system γ-H2AX foci in DU-145 cells. In words: IR-induced γ-H2AX focus formation, DU-145. The note with it: 10 μM peptide, 6Gy. The format is cell-based, human. An excerpt: (§1) Error bars represent +/−1 SD, graphed are the mean of three independent experiments.
wtNIP Inhibits IR-Induced γ-H2AX and NBS1 pSer343 Focus Formation: One of the earliest responses to IR-induced DNA damage is the formation of γ-H2AX foci, which requires functional ATM (Burma et al., 2001; Furuta et al., 2003). […] Immunofluorescence microscopy was used to detect the presence of γ-H2AX foci in mock-irradiated or irradiated cells in the presence of R9, wtNIP or scNIP. […] Therefore, IR-induced γ-H2AX focus formation can be inhibited by wt-NIP.

Assay [3] has as its system NBS1 phosphorylation on serine 343 in HeLa cells. In words: IR-induced NBS1 pSer343 focus formation, HeLa. It counts as cell-based, human.
Description: as §1
To further support the idea that wtNIP can inhibit ATM-mediated DNA damage pathways, IR-induced NBS1 focus formation, an event considered to be an ATM-dependent process at the sites of DSBs (Lim et al., 2000) was investigated. NBS1 foci are a result of ATM-mediated NBS1 phosphorylation on serine 343. […] The average number of foci in mock-irradiated HeLa cells was 6, 8, and 6 for R9, wtNIP, and scNIP, respectively.

In assay [4] the test system is HeLa cells. In words: Colony formation assay (radiosensitivity), HeLa. As to the method: Shown in A (HeLa), C (MO59J) and D (GM9607) are the susvival curves after indicated doses of radiation. Error bars represent +/−1 SEM, graphed are the mean of three independent experiments.
Colony formation assays: To determine the radiosensitivity, the colony forming assay was incorporated. Cells were harvested with 0.125% trypsin-0.05% EDTA, pelleted and re-suspended in 1 ml fresh media with a 22 g needle to disperse clumps prior to hemocytometer counting in trypan blue. Cells were then plated at limiting dilutions in […] and allowed to adhere overnight. Cultures were treated with PBS, R9, wtNIP, or scNIP for 1 hour, and irradiated (0-6Gy). Fresh peptides were added every four hours until 24 hours after IR, when the medium was replaced with peptide-free medium. Cultures were incubated for 10-12 days, harvested and stained with 0.5% crystal violet in methanol. Colony number was determined with a dissecting microscope. A population of >50 cells was counted as one colony, and the number of colonies was expressed as a percentage of the value for untreated mock irradiated control cells. The surviving curves were plotted by linear regression analyses and the D0 value represents the radiation dose that leads to 37% of survival. To determine the radiosensitizing potential of the peptides in comparison to other small molecule inhibitors, the sensitizing enhancement ratio (SER) was calculated based on the dose of radiation required to reduce survival to 37% in the presence of scNIP or wtNIP. The following formula was used: […]
Statistics: To establish statistical significance, Student's t-test was incorporated. The data were first fit to each experimental group over a dose range of 0-6Gy. Significant differences were established at p<0.05.
FIG. 6A depicts the survival curves for HeLa cells treated with R9, wtNIP, or scNIP over a dose range of 0 to 6 Gy.

Molecules are shown by their SMILES. Peptide text beside a SMILES is read from it. * marks the point of attachment. Biotin = O=C1N[C@H]2[C@H](CS[C@H]2CCCCC(=O)*)N1

Take `CC(C)C[C@H](NC(=O)[C@H](CC(=O)O)NC(=O)[C@H](CC(=O)O)NC(=O)[C@H](C)NC(=O)[C@H](CC(C)C)NC(=O)[C@H](CO)NC(=O)[C@H](CCC(=O)O)NC(=O)[C@H](CCC(=O)O)NC(=O)[C@H](CCCCN)NC(=O)[C@H](CCCNC(=N)N)NC(=O)[C@H](CCCNC(=N)N)NC(=O)[C@H](CCCNC(=N)N)NC(=O)[C@H](CCCNC(=N)N)NC(=O)[C@H](CCCNC(=N)N)NC(=O)[C@H](CCCNC(=N)N)NC(=O)[C@H](CCCNC(=N)N)NC(=O)[C@H](CCCNC(=N)N)NC(=O)[C@H](CCCNC(=N)N)NC(=O)CCCC[C@@H]1SC[C@@H]2NC(=O)N[C@@H]21)C(=O)O` [wtNIP] (Biotin-RRRRRRRRRKEESLADDL-OH): the “NBS1 binding to MRE11” value in assay [1] is “did not interfere with NBS1 binding to MRE11”. Further, the “IR-induced γ-H2AX focus formation” value in assay [2] is “significantly reduced H2AX foci/nucleus”. For the same compound, the “NBS1 pSer343 foci per nucleus” value in assay [3] (HeLa cells after treatment with 6-Gy IR) is listed as 6 foci per nucleus. Also, the “NBS1 phosphorylation (anti-phospho-Ser343 NBS1 antibody)” value in assay [3] (compared with R9 or scNIP treated cells) was “significantly inhibited”. In assay [3] (mock-irradiated HeLa cells), the “average number of NBS1 pSer343 foci” value is reported as 8. Further, the “D0 (mean lethal dose required for 37% survival)” value in assay [4] turned out to be 1.9. For the same compound, in assay [4], the “SER (dose required to reduce survival to 37%, scNIP versus wtNIP)” value is 1.58. In addition, the sensitizer enhancement ratio in assay [4] (2Gy) came to 1.66; in assay [4] (4Gy) it was 2.61; in assay [4] (6Gy), 3.12. In addition, in assay [4] (dose range 0 to 6 Gy), the “effect on radiosensitivity / IR-induced survival” value is “can significantly decrease IR-induced survival”.
